Reference: paper PMC10178848, “Modulating fast skeletal muscle contraction protects skeletal muscle in animal models of Duchenne muscular dystrophy” (The Journal of Clinical Investigation, 2023)

Tested on: mdx mouse EDL muscle
Assay: Phosphoprotein array analysis (Cell Signaling Phospho Antibody Array)
Protocol: mdx mouse EDL muscle was prepared for ex vivo analysis as described (n = 5). Muscles were incubated for 1 hour with DMSO or EDG-5506 (5 μM) and then flash frozen in liquid nitrogen. Tissue preparation and analysis were performed as recommended by the manufacturer (Cell Signaling Phospho Antibody Array, Full Moon Biosystems).

O=c1ccc(-c2cnc(OCC(F)(F)F)nc2)nn1Cc1cncc(F)c1 [EDG-5506]
Data Normalized to Median Signal: CDK1/CDC2 (Phospho-Tyr15) (4000031744 (T)): 0.89 | Data Normalized to Median Signal: CREB (Phospho-Ser133) (4000031744 (T)): 0.81 | Data Normalized to Median Signal: CaMK2-beta/gamma/delta (Phospho-Thr287) (4000031744 (T)): 1.20 | Data Normalized to Median Signal: CaMK2A (Phospho-Thr286) (4000031744 (T)): 0.85 | Data Normalized to Median Signal: Caspase 8 (Phospho-Ser347) (4000031744 (T)): 1.06 | Data Normalized to Median Signal: Caspase 9 (Phospho-Ser196) (4000031744 (T)): 2.98 | Data Normalized to Median Signal: Catenin beta (Phospho-Thr41/Ser45) (4000031744 (T)): 0.90 | Data Normalized to Median Signal: Chk2 (Phospho-Thr68) (4000031744 (T)): 0.66 | Data Normalized to Median Signal: Cyclin D1 (Phospho-Thr286) (4000031744 (T)): 2.47 | Data Normalized to Median Signal: Cyclin E1 (Phospho-Thr77) (4000031744 (T)): 1.57 | Data Normalized to Median Signal: DARPP-32 (Phospho-Thr34) (4000031744 (T)): 0.93 | Data Normalized to Median Signal: EEF2 (Phospho-Thr56) (4000031744 (T)): 1.33 | Data Normalized to Median Signal: FADD (Phospho-Ser194) (4000031744 (T)): 2.10 | Data Normalized to Median Signal: FAK (Phospho-Ser910) (4000031744 (T)): 1.62 | Data Normalized to Median Signal: FGFR1 (Phospho-Tyr654) (4000031744 (T)): 2.43 | Data Normalized to Median Signal: GRK2 (Phospho-Ser29) (4000031744 (T)): 1.51 | Data Normalized to Median Signal: GSK3 alpha/beta (Phospho-Tyr216/279) (4000031744 (T)): 1.02 | Data Normalized to Median Signal: Gab2 (Phospho-Tyr643) (4000031744 (T)): 4.36 | Data Normalized to Median Signal: HDAC1 (Phospho-Ser421) (4000031744 (T)): 1.53 | Data Normalized to Median Signal: HDAC2 (Phospho-Ser394) (4000031744 (T)): 1.45 | Data Normalized to Median Signal: HSP90B (Phospho-Ser226) (4000031744 (T)): 2.09 | Data Normalized to Median Signal: IKK-beta (Phospho-Tyr188) (4000031744 (T)): 1.11 | Data Normalized to Median Signal: IKK-beta (Phospho-Tyr199) (4000031744 (T)): 1.14 | Data Normalized to Median Signal: IKK-gamma (Phospho-Ser31) (4000031744 (T)): 0.98 | Data Normalized to Median Signal: IL-4R/CD124 (Phospho-Tyr497) (4000031744 (T)): 1.35 | Data Normalized to Median Signal: IL-10R-alpha (Phospho-Tyr496) (4000031744 (T)): 1.26 | Data Normalized to Median Signal: IkB-alpha (Phospho-Ser32/36) (4000031744 (T)): 8.76 | Data Normalized to Median Signal: Integrin beta-3 (Phospho-Tyr773) (4000031744 (T)): 0.89 | Data Normalized to Median Signal: JunB (Phospho-Ser259) (4000031744 (T)): 0.90 | Data Normalized to Median Signal: LYN (Phospho-Tyr507) (4000031744 (T)): 1.16 | Data Normalized to Median Signal: Lamin A/C (Phospho-Ser392) (4000031744 (T)): 0.81 | Data Normalized to Median Signal: MEK1 (Phospho-Ser217) (4000031744 (T)): 0.66 | Data Normalized to Median Signal: NFkB-p65 (Phospho-Ser311) (4000031744 (T)): 0.96 | Data Normalized to Median Signal: NFkB-p65 (Phospho-Ser529) (4000031744 (T)): 54.58 | Data Normalized to Median Signal: NFkB-p100/p52 (Phospho-Ser865) (4000031744 (T)): 1.13 | Data Normalized to Median Signal: P38 MAPK (Phospho-Thr180/Tyr182) (4000031744 (T)): 1.99 | Data Normalized to Median Signal: P70S6K (Phospho-Ser424) (4000031744 (T)): 0.97 | Data Normalized to Median Signal: P90RSK (Phospho-Thr359/Ser363) (4000031744 (T)): 1.39 | Data Normalized to Median Signal: PDK1 (Phospho-Ser241) (4000031744 (T)): 1.70 | Data Normalized to Median Signal: PLCG1 (Phospho-Tyr783) (4000031744 (T)): 7.48 | Data Normalized to Median Signal: PLK1 (Phospho-Thr210) (4000031744 (T)): 0.61 | Data Normalized to Median Signal: PP2A-alpha (Phospho-Tyr307) (4000031744 (T)): 0.97 | Data Normalized to Median Signal: PPAR-gamma (Phospho-Ser112) (4000031744 (T)): 1.23 | Data Normalized to Median Signal: Rb (Phospho-Ser807) (4000031744 (T)): 0.99 | Data Normalized to Median Signal: RelB (Phospho-Ser552) (4000031744 (T)): 2.68 | Data Normalized to Median Signal: SAPK/JNK (Phospho-Tyr185) (4000031744 (T)): 0.87 | Data Normalized to Median Signal: SHP-2 (Phospho-Tyr542) (4000031744 (T)): 1.06 | Data Normalized to Median Signal: STAT3 (Phospho-Tyr705) (4000031744 (T)): 0.90 | Data Normalized to Median Signal: STAT4 (Phospho-Tyr693) (4000031744 (T)): 43.74 | Data Normalized to Median Signal: STAT6 (Phospho-Thr645) (4000031744 (T)): 0.94 | Data Normalized to Median Signal: SYK (Phospho-Tyr348) (4000031744 (T)): 1.04 | Data Normalized to Median Signal: Smad1 (Phospho-Ser187) (4000031744 (T)): 1.71 | Data Normalized to Median Signal: Smad2 (Phospho-Ser467) (4000031744 (T)): 1.05 | Data Normalized to Median Signal: Smad2/3 (Phospho-Thr8) (4000031744 (T)): 2.11 | Data Normalized to Median Signal: Smad3 (Phospho-Ser213) (4000031744 (T)): 1.56 | Data Normalized to Median Signal: Src (Phospho-Tyr418) (4000031744 (T)): 9.05 | Data Normalized to Median Signal: Tau (Phospho-Ser396) (4000031744 (T)): 0.88 | Data Normalized to Median Signal: VEGFR2 (Phospho-Tyr1175) (4000031744 (T)): 0.88 | Data Normalized to Median Signal: Zap-70 (Phospho-Tyr319) (4000031744 (T)): 1.25 | Data Normalized to Median Signal: c-Jun (Phospho-Ser73) (4000031744 (T)): 0.98 | Data Normalized to Median Signal: p44/42 MAP Kinase (Phospho-Tyr204) (4000031744 (T)): 0.86 | Data Normalized to Median Signal: p53 (Phospho-Ser15) (4000031744 (T)): 1.59 | Fold Change between Samples T/C: 4E-BP1 (Phospho-Thr45) (T vs C): 0.89 | Fold Change between Samples T/C: ACC1 (Phospho-Ser80) (T vs C): 1.12 | Fold Change between Samples T/C: AMPKbeta1 (Phospho-Ser182) (T vs C): 0.97 | Fold Change between Samples T/C: B-RAF (Phospho-Ser446) (T vs C): 1.05 | Fold Change between Samples T/C: BAX (Phospho-Thr167) (T vs C): 0.95 | Fold Change between Samples T/C: BCL-XL (Phospho-Ser62) (T vs C): 1.23 | Fold Change between Samples T/C: BLNK (Phospho-Tyr96) (T vs C): 0.62 | Fold Change between Samples T/C: CBL (Phospho-Tyr700) (T vs C): 0.88 | Fold Change between Samples T/C: CDK1/CDC2 (Phospho-Tyr15) (T vs C): 0.83 | Fold Change between Samples T/C: CREB (Phospho-Ser133) (T vs C): 0.74 | Fold Change between Samples T/C: CaMK2-beta/gamma/delta (Phospho-Thr287) (T vs C): 0.92 | Fold Change between Samples T/C: CaMK2A (Phospho-Thr286) (T vs C): 0.86 | Fold Change between Samples T/C: Caspase 8 (Phospho-Ser347) (T vs C): 1.08 | Fold Change between Samples T/C: Caspase 9 (Phospho-Ser196) (T vs C): 0.94 | Fold Change between Samples T/C: Catenin beta (Phospho-Thr41/Ser45) (T vs C): 0.83 | Fold Change between Samples T/C: Chk2 (Phospho-Thr68) (T vs C): 0.51 | Fold Change between Samples T/C: Cyclin D1 (Phospho-Thr286) (T vs C): 1.18 | Fold Change between Samples T/C: Cyclin E1 (Phospho-Thr77) (T vs C): 1.02 | Fold Change between Samples T/C: DARPP-32 (Phospho-Thr34) (T vs C): 0.91 | Fold Change between Samples T/C: EEF2 (Phospho-Thr56) (T vs C): 1.12 | Fold Change between Samples T/C: FADD (Phospho-Ser194) (T vs C): 1.53 | Fold Change between Samples T/C: FAK (Phospho-Ser910) (T vs C): 1.09 | Fold Change between Samples T/C: FGFR1 (Phospho-Tyr654) (T vs C): 1.35 | Fold Change between Samples T/C: GRK2 (Phospho-Ser29) (T vs C): 1.26 | Fold Change between Samples T/C: GSK3 alpha/beta (Phospho-Tyr216/279) (T vs C): 0.97 | Fold Change between Samples T/C: Gab2 (Phospho-Tyr643) (T vs C): 1.59 | Fold Change between Samples T/C: HDAC1 (Phospho-Ser421) (T vs C): 1.25 | Fold Change between Samples T/C: HDAC2 (Phospho-Ser394) (T vs C): 0.90 | Fold Change between Samples T/C: HSP90B (Phospho-Ser226) (T vs C): 1.00 | Fold Change between Samples T/C: IKK-beta (Phospho-Tyr188) (T vs C): 1.01 | Fold Change between Samples T/C: IKK-beta (Phospho-Tyr199) (T vs C): 0.84 | Fold Change between Samples T/C: IKK-gamma (Phospho-Ser31) (T vs C): 0.98 | Fold Change between Samples T/C: IL-4R/CD124 (Phospho-Tyr497) (T vs C): 0.93 | Fold Change between Samples T/C: IL-10R-alpha (Phospho-Tyr496) (T vs C): 0.85 | Fold Change between Samples T/C: IkB-alpha (Phospho-Ser32/36) (T vs C): 1.11 | Fold Change between Samples T/C: Integrin beta-3 (Phospho-Tyr773) (T vs C): 0.93 | Fold Change between Samples T/C: JunB (Phospho-Ser259) (T vs C): 0.79 | Fold Change between Samples T/C: LYN (Phospho-Tyr507) (T vs C): 1.06 | Fold Change between Samples T/C: Lamin A/C (Phospho-Ser392) (T vs C): 0.80 | Fold Change between Samples T/C: MEK1 (Phospho-Ser217) (T vs C): 0.62 | Fold Change between Samples T/C: NFkB-p65 (Phospho-Ser311) (T vs C): 1.00 | Fold Change between Samples T/C: NFkB-p65 (Phospho-Ser529) (T vs C): 0.82 | Fold Change between Samples T/C: NFkB-p100/p52 (Phospho-Ser865) (T vs C): 0.88 | Fold Change between Samples T/C: P38 MAPK (Phospho-Thr180/Tyr182) (T vs C): 0.35 | Fold Change between Samples T/C: P70S6K (Phospho-Ser424) (T vs C): 1.00 | Fold Change between Samples T/C: P90RSK (Phospho-Thr359/Ser363) (T vs C): 0.95 | Fold Change between Samples T/C: PDK1 (Phospho-Ser241) (T vs C): 1.14 | Fold Change between Samples T/C: PLCG1 (Phospho-Tyr783) (T vs C): 2.25 | Fold Change between Samples T/C: PLK1 (Phospho-Thr210) (T vs C): 0.60 | Fold Change between Samples T/C: PP2A-alpha (Phospho-Tyr307) (T vs C): 0.93 | Fold Change between Samples T/C: PPAR-gamma (Phospho-Ser112) (T vs C): 1.26 | Fold Change between Samples T/C: Rb (Phospho-Ser807) (T vs C): 0.91 | Fold Change between Samples T/C: RelB (Phospho-Ser552) (T vs C): 0.76 | Fold Change between Samples T/C: SAPK/JNK (Phospho-Tyr185) (T vs C): 0.84 | Fold Change between Samples T/C: SHP-2 (Phospho-Tyr542) (T vs C): 0.91 | Fold Change between Samples T/C: STAT3 (Phospho-Tyr705) (T vs C): 0.92 | Fold Change between Samples T/C: STAT4 (Phospho-Tyr693) (T vs C): 1.04 | Fold Change between Samples T/C: STAT6 (Phospho-Thr645) (T vs C): 0.89 | Fold Change between Samples T/C: SYK (Phospho-Tyr348) (T vs C): 0.91 | Fold Change between Samples T/C: Smad1 (Phospho-Ser187) (T vs C): 1.60 | Fold Change between Samples T/C: Smad2 (Phospho-Ser467) (T vs C): 1.00 | Fold Change between Samples T/C: Smad2/3 (Phospho-Thr8) (T vs C): 1.25 | Fold Change between Samples T/C: Smad3 (Phospho-Ser213) (T vs C): 1.26 | Fold Change between Samples T/C: Src (Phospho-Tyr418) (T vs C): 0.77
